Test system: MV-4-11 cells
Assay: Gene expression microarray analysis (Affymetrix PrimeView) and GSEA
Format: cell-based, human
Set-up: RFU PODN (11730768_x_at) / Fold change /veh PODN (11730768_x_at) / RFU LINC00158 (11744669_a_at) / Fold change /veh LINC00158 (11744669_a_at) / RFU DUSP10 (11751237_a_at) / Fold change /veh DUSP10 (11751237_a_at) / RFU ID3 (11757404_x_at) / Fold change /veh ID3 (11757404_x_at) / RFU PLEKHG5 (11737974_s_at) / Fold change /veh PLEKHG5 (11737974_s_at) / RFU LRRC4B (11730491_at) / Fold change /veh LRRC4B (11730491_at) / RFU GIMAP4 (11747438_a_at) / Fold change /veh GIMAP4 (11747438_a_at) / RFU KRT8 (11758183_x_at) / Fold change /veh KRT8 (11758183_x_at) / RFU CNN1 (11734310_a_at) / Fold change /veh CNN1 (11734310_a_at) / RFU VPS37D (11726825_at) / Fold change /veh VPS37D (11726825_at) / RFU C10orf10 (11716522_x_at) / Fold change /veh C10orf10 (11716522_x_at) / RFU KIR2DL2 /// KIR2DL4 /// KIR2DL5A /// KIR2DL5B /// KIR2DS1 /// KIR2DS2 /// KIR2DS3 /// KIR2DS4 /// KIR3DL3 /// KIR3DL3 /// KIR3DS1 (11738374_at) / Fold change /veh KIR2DL2 /// KIR2DL4 /// KIR2DL5A /// KIR2DL5B /// KIR2DS1 /// KIR2DS2 /// KIR2DS3 /// KIR2DS4 /// KIR3DL3 /// KIR3DL3 /// KIR3DS1 (11738374_at) / RFU C1QL1 (11718748_at) / Fold change /veh C1QL1 (11718748_at) / RFU TMPRSS4 (11747572_a_at) / Fold change /veh TMPRSS4 (11747572_a_at) / RFU HAMP (11756126_x_at) / Fold change /veh HAMP (11756126_x_at) / RFU RNFT2 (11725882_a_at) / Fold change /veh RNFT2 (11725882_a_at) / RFU NR4A2 (11747474_a_at) / Fold change /veh NR4A2 (11747474_a_at) / RFU ABCC12 (11746883_a_at) / Fold change /veh ABCC12 (11746883_a_at) / RFU TMEM136 (11760407_x_at) / Fold change /veh TMEM136 (11760407_x_at) / RFU CLDN22 /// WWC2 (11732394_at) / Fold change /veh CLDN22 /// WWC2 (11732394_at) / RFU HLA-DPB1 (11760878_x_at) / Fold change /veh HLA-DPB1 (11760878_x_at) / RFU SPINT1 (11716480_a_at) / Fold change /veh SPINT1 (11716480_a_at) / RFU GAP43 (11754022_s_at) / Fold change /veh GAP43 (11754022_s_at) / RFU A4GNT (11735810_at) / Fold change /veh A4GNT (11735810_at) / RFU PRB3 (11715151_x_at) / Fold change /veh PRB3 (11715151_x_at) / RFU TUBB4B (11761932_at) / Fold change /veh TUBB4B (11761932_at) / RFU CAPN14 (11732068_a_at) / Fold change /veh CAPN14 (11732068_a_at) / RFU TMCC2 (11721928_a_at) / Fold change /veh TMCC2 (11721928_a_at) / RFU IRGQ (11745062_a_at) / Fold change /veh IRGQ (11745062_a_at) / RFU FAM174B (11720279_a_at) / Fold change /veh FAM174B (11720279_a_at) / RFU TMPRSS4 (11748680_a_at) / Fold change /veh TMPRSS4 (11748680_a_at) / RFU FAM212B (11763350_a_at) / Fold change /veh FAM212B (11763350_a_at) / RFU PLEKHG5 (11743358_a_at) / Fold change /veh PLEKHG5 (11743358_a_at) / RFU ZSCAN30 (11745921_a_at) / Fold change /veh ZSCAN30 (11745921_a_at) / RFU CMKLR1 (11741424_a_at) / Fold change /veh CMKLR1 (11741424_a_at) / RFU LOC101060620 /// MAPK8IP1 (11723275_at) / Fold change /veh LOC101060620 /// MAPK8IP1 (11723275_at) / RFU SPTSSB (11747773_x_at) / Fold change /veh SPTSSB (11747773_x_at) / RFU PRSS12 (11739890_at) / Fold change /veh PRSS12 (11739890_at) / RFU BIN1 (11741810_x_at) / Fold change /veh BIN1 (11741810_x_at) / RFU WNT11 (11732464_a_at) / Fold change /veh WNT11 (11732464_a_at) / RFU C10orf10 (11716521_a_at) / Fold change /veh C10orf10 (11716521_a_at) / RFU C5orf56 (11738089_at) / Fold change /veh C5orf56 (11738089_at) / RFU CYB561 (11721691_x_at) / Fold change /veh CYB561 (11721691_x_at) / RFU ANKRD19P (11752326_a_at) / Fold change /veh ANKRD19P (11752326_a_at) / RFU OR2T12 /// OR2T33 /// OR2T8 (11738714_s_at) / Fold change /veh OR2T12 /// OR2T33 /// OR2T8 (11738714_s_at) / RFU VCAN (11748164_a_at) / Fold change /veh VCAN (11748164_a_at) / RFU JSRP1 (11732532_at) / Fold change /veh JSRP1 (11732532_at) / RFU KRTAP10-11 (11738290_x_at) / Fold change /veh KRTAP10-11 (11738290_x_at) / RFU MYO3A (11730013_a_at) / Fold change /veh MYO3A (11730013_a_at) / RFU EBF3 (11725865_a_at) / Fold change /veh EBF3 (11725865_a_at) / RFU CAMK2N1 (11719241_x_at) / Fold change /veh CAMK2N1 (11719241_x_at) / RFU C5orf56 (11738088_a_at) / Fold change /veh C5orf56 (11738088_a_at) / RFU OLFML3 (11715873_a_at) / Fold change /veh OLFML3 (11715873_a_at) / RFU LOC100653217 /// NTM (11731650_a_at) / Fold change /veh LOC100653217 /// NTM (11731650_a_at) / RFU MAPK11 (11762145_a_at) / Fold change /veh MAPK11 (11762145_a_at) / RFU FIZ1 (11724087_x_at) / Fold change /veh FIZ1 (11724087_x_at) / RFU OASL (11726364_x_at) / Fold change /veh OASL (11726364_x_at) / RFU SOX15 (11748057_x_at) / Fold change /veh SOX15 (11748057_x_at) / RFU CD79A (11719716_a_at) / Fold change /veh CD79A (11719716_a_at) / RFU HIST1H1D (11736915_at) / Fold change /veh HIST1H1D (11736915_at) / RFU CASKIN2 (11723855_a_at) / Fold change /veh CASKIN2 (11723855_a_at) / RFU LOC730098 (11760151_x_at) / Fold change /veh LOC730098 (11760151_x_at) / RFU OR4N2 (11742367_at) / Fold change /veh OR4N2 (11742367_at) / RFU PRRT2 (11749266_a_at) / Fold change /veh PRRT2 (11749266_a_at) / RFU SNX32 (11753110_a_at) / Fold change /veh SNX32 (11753110_a_at) / RFU CDHR5 (11726645_a_at) / Fold change /veh CDHR5 (11726645_a_at) / RFU RCAN1 (11760418_a_at) / Fold change /veh RCAN1 (11760418_a_at) / RFU FAM167A (11723789_a_at) / Fold change /veh FAM167A (11723789_a_at) / RFU FAM26E (11764081_at) / Fold change /veh FAM26E (11764081_at) / RFU ISYNA1 (11749810_s_at) / Fold change /veh ISYNA1 (11749810_s_at) / RFU ACY1 (11761880_at) / Fold change /veh ACY1 (11761880_at) / RFU 11764098_at / Fold change /veh 11764098_at / RFU SAMD14 (11745864_x_at) / Fold change /veh SAMD14 (11745864_x_at) / RFU NPB (11741838_a_at) / Fold change /veh NPB (11741838_a_at) / RFU TMPRSS6 (11731388_a_at) / Fold change /veh TMPRSS6 (11731388_a_at) / RFU KRTAP10-2 (11738614_at) / Fold change /veh KRTAP10-2 (11738614_at) / RFU ARHGAP8 /// PRR5-ARHGAP8 (11727945_x_at) / Fold change /veh ARHGAP8 /// PRR5-ARHGAP8 (11727945_x_at) / RFU KRTAP5-7 /// NADSYN1 (11734609_at) / Fold change /veh KRTAP5-7 /// NADSYN1 (11734609_at) / RFU RASL12 (11751679_a_at) / Fold change /veh RASL12 (11751679_a_at) / RFU CDKN2B (11736163_a_at) / Fold change /veh CDKN2B (11736163_a_at) / RFU PRF1 (11729649_at) / Fold change /veh PRF1 (11729649_at) / RFU, ZNF638 /// ZNF638-IT1 / Fold change vs veh, ZNF638 /// ZNF638-IT1 / RFU, PANK3 / Fold change vs veh, PANK3 / RFU, SH3YL1 / Fold change vs veh, SH3YL1 / RFU, ZEB2 / Fold change vs veh, ZEB2 / RFU, NRIP1 / Fold change vs veh, NRIP1 / RFU, PTTG1IP / Fold change vs veh, PTTG1IP / RFU, CAPN2 / Fold change vs veh, CAPN2 / RFU, MED14 / Fold change vs veh, MED14 / RFU, SNORA58 / Fold change vs veh, SNORA58 / RFU, C1orf63 / Fold change vs veh, C1orf63 / RFU, LRRFIP1 / Fold change vs veh, LRRFIP1 / RFU, NDUFAF7 / Fold change vs veh, NDUFAF7 / RFU, SLC12A2 / Fold change vs veh, SLC12A2 / RFU, IBTK / Fold change vs veh, IBTK / RFU, ESF1 / Fold change vs veh, ESF1 / Fold change vs veh, TMEM50B / RFU, TAOK1 / Fold change vs veh, TAOK1 / RFU, ACBD3 / Fold change vs veh, ACBD3 / RFU, TMA16 / Fold change vs veh, TMA16 / RFU, RWDD3 / Fold change vs veh, RWDD3 / RFU, BCAT1 / Fold change vs veh, BCAT1 / RFU, EDEM3 / Fold change vs veh, EDEM3 / RFU, TMEM33 / Fold change vs veh, TMEM33 / RFU, WDR75 / Fold change vs veh, WDR75 / RFU, AHCTF1 / Fold change vs veh, AHCTF1 / RFU, TFRC / Fold change vs veh, TFRC / RFU, ZDHHC17 / Fold change vs veh, ZDHHC17 / RFU, NOM1 / Fold change vs veh, NOM1 / RFU, ARL8B / Fold change vs veh, ARL8B / RFU, ZBTB11 / Fold change vs veh, ZBTB11 / RFU, TAMM41 / Fold change vs veh, TAMM41 / RFU, KIAA1704 /// LOC100996395 / Fold change vs veh, KIAA1704 /// LOC100996395 / RFU, ING1 / Fold change vs veh, ING1 / RFU, TRMT61B / Fold change vs veh, TRMT61B / RFU, FUBP3 / Fold change vs veh, FUBP3 / RFU, TP53 / Fold change vs veh, TP53 / RFU, TNKS2 / Fold change vs veh, TNKS2 / RFU, ZFP14 / Fold change vs veh, ZFP14 / RFU, ACTR2 / Fold change vs veh, ACTR2 / RFU, PPP3R1 / Fold change vs veh, PPP3R1 / RFU, PIK3R1 / Fold change vs veh, PIK3R1 / RFU, HNRNPA1 / Fold change vs veh, HNRNPA1 / RFU, RNF170 / Fold change vs veh, RNF170 / RFU, ZNF28 / Fold change vs veh, ZNF28 / RFU, RNGTT / Fold change vs veh, RNGTT / RFU, OGT / Fold change vs veh, OGT / RFU, BRD1 / Fold change vs veh, BRD1 / RFU, MARS / Fold change vs veh, MARS / RFU, ZNF655 / Fold change vs veh, ZNF655 / RFU, FAHD1 / Fold change vs veh, FAHD1 / RFU, BDP1 / Fold change vs veh, BDP1 / RFU, LRRCC1 / Fold change vs veh, LRRCC1 / RFU, ARID1A / Fold change vs veh, ARID1A / RFU, ZNF146 / Fold change vs veh, ZNF146 / RFU, ZNF330 / Fold change vs veh, ZNF330 / RFU, GPN3 / Fold change vs veh, GPN3 / RFU, C9orf123 / Fold change vs veh, C9orf123 / RFU, N4BP2L2 / Fold change vs veh, N4BP2L2 / RFU, ARFIP1 / Fold change vs veh, ARFIP1 / RFU, FAM179B / Fold change vs veh, FAM179B / RFU, BCL10 / Fold change vs veh, BCL10 / RFU, UHRF1BP1L / Fold change vs veh, UHRF1BP1L / RFU, BET1 / Fold change vs veh, BET1 / RFU, CNOT2 / Fold change vs veh, CNOT2 / RFU, ZNF268 / Fold change vs veh, ZNF268 / Fold change vs veh, ZNF507 / RFU, DGCR2 / Fold change vs veh, DGCR2 / RFU, WDSUB1 / Fold change vs veh, WDSUB1 / Fold change vs veh, HSP90B1 /// MIR3652 / RFU, ADSS / Fold change vs veh, ADSS / RFU, GK / Fold change vs veh, GK / RFU, ZNF148 / Fold change vs veh, ZNF148 / RFU, TAF9 / Fold change vs veh, TAF9 / RFU, SLC1A5 / Fold change vs veh, SLC1A5 / RFU, SLMO2 / Fold change vs veh, SLMO2 / RFU, ABCC4 / Fold change vs veh, ABCC4 / RFU, LOC101060439 /// RAP1B / Fold change vs veh, LOC101060439 /// RAP1B / RFU, RFX7 / Fold change vs veh, RFX7 / RFU, GTPBP10 / Fold change vs veh, GTPBP10 / RFU, CNEP1R1 / Fold change vs veh, CNEP1R1 / RFU, BIVM-ERCC5 /// ERCC5 / Fold change vs veh, BIVM-ERCC5 /// ERCC5 / RFU, ILF3 / Fold change vs veh, ILF3 / RFU 11762660_at / Fold change /veh 11762660_at / RFU VCAN (11757783_s_at) / Fold change /veh VCAN (11757783_s_at) / RFU DDX43 (11728927_at) / Fold change /veh DDX43 (11728927_at) / RFU KRT8 (11758188_x_at) / Fold change /veh KRT8 (11758188_x_at) / RFU NKD1 (11759106_at) / Fold change /veh NKD1 (11759106_at) / RFU SRD5A1 (11742802_a_at) / Fold change /veh SRD5A1 (11742802_a_at) / RFU TPSAB1 /// TPSB2 (11721975_s_at) / Fold change /veh TPSAB1 /// TPSB2 (11721975_s_at) / RFU GSTM3 (11746129_a_at) / Fold change /veh GSTM3 (11746129_a_at) / RFU IL23R (11737362_x_at) / Fold change /veh IL23R (11737362_x_at) / RFU TMEM51 (11727254_a_at) / Fold change /veh TMEM51 (11727254_a_at) / RFU PIWIL2 (11732686_x_at) / Fold change /veh PIWIL2 (11732686_x_at) / RFU ORM1 (11744905_x_at) / Fold change /veh ORM1 (11744905_x_at) / RFU CCDC152 (11743942_at) / Fold change /veh CCDC152 (11743942_at) / RFU ECM1 (11717891_a_at) / Fold change /veh ECM1 (11717891_a_at) / RFU IL23R (11748794_a_at) / Fold change /veh IL23R (11748794_a_at) / RFU TNFAIP8L3 (11732012_x_at) / Fold change /veh TNFAIP8L3 (11732012_x_at) / RFU MBOAT4 (11741988_at) / Fold change /veh MBOAT4 (11741988_at) / RFU 11764193_at / Fold change /veh 11764193_at / RFU TMEM53 (11763286_at) / Fold change /veh TMEM53 (11763286_at) / RFU MAGEB2 (11727129_at) / Fold change /veh MAGEB2 (11727129_at) / RFU TMEM200A (11744735_a_at) / Fold change /veh TMEM200A (11744735_a_at) / RFU CCDC152 (11751479_a_at) / Fold change /veh CCDC152 (11751479_a_at) / RFU FAM211A (11726209_a_at) / Fold change /veh FAM211A (11726209_a_at) / RFU RGS16 (11746705_a_at) / Fold change /veh RGS16 (11746705_a_at) / RFU VCAN (11755009_s_at) / Fold change /veh VCAN (11755009_s_at) / RFU RHOB (11743442_s_at) / Fold change /veh RHOB (11743442_s_at) / RFU RGS16 (11720943_a_at) / Fold change /veh RGS16 (11720943_a_at) / RFU RGS16 (11720944_at) / Fold change /veh RGS16 (11720944_at) / RFU, VPS4B / Fold change vs veh, VPS4B / RFU, CREB1 / Fold change vs veh, CREB1 / RFU, DNAJC13 / Fold change vs veh, DNAJC13 / RFU, GNAQ / Fold change vs veh, GNAQ / RFU, CDK5R1 / Fold change vs veh, CDK5R1 / RFU, ZRANB3 / Fold change vs veh, ZRANB3 / RFU, CUL4A / Fold change vs veh, CUL4A / RFU, CCNY / Fold change vs veh, CCNY / RFU, UFL1 / Fold change vs veh, UFL1 / RFU, COG3 / Fold change vs veh, COG3 / RFU, DIAPH2 / Fold change vs veh, DIAPH2 / RFU, SKA2 / Fold change vs veh, SKA2 / RFU, AFF3 / Fold change vs veh, AFF3 / RFU, LMF1 / Fold change vs veh, LMF1 / RFU, IPO11 / Fold change vs veh, IPO11 / RFU, DFFB / Fold change vs veh, DFFB / RFU, FOXP1 / Fold change vs veh, FOXP1 / RFU, CARD8 / Fold change vs veh, CARD8 / RFU, STRN3 / Fold change vs veh, STRN3 / RFU, ADK / Fold change vs veh, ADK / RFU, RASSF2 / Fold change vs veh, RASSF2 / RFU, WIPF1 / Fold change vs veh, WIPF1 / RFU, LARP1B / Fold change vs veh, LARP1B / RFU, RASA1 / Fold change vs veh, RASA1 / RFU, RB1 / Fold change vs veh, RB1 / RFU, PPFIA1 / Fold change vs veh, PPFIA1 / RFU, MAT2A / Fold change vs veh, MAT2A / RFU, CCT5 / Fold change vs veh, CCT5 / RFU, WDR92 / Fold change vs veh, WDR92 / RFU, CUX1 / Fold change vs veh, CUX1 / RFU, TTC7A / Fold change vs veh, TTC7A / RFU, TMEM135 / Fold change vs veh, TMEM135 / RFU, DEPTOR / Fold change vs veh, DEPTOR / RFU, CPM / Fold change vs veh, CPM / RFU, DNAJB6 / Fold change vs veh, DNAJB6 / RFU, CACNA2D3 / Fold change vs veh, CACNA2D3 / RFU, DTX4 / Fold change vs veh, DTX4 / RFU, TFCP2 / Fold change vs veh, TFCP2 / RFU, GMCL1 /// GMCL1P1 / Fold change vs veh, GMCL1 /// GMCL1P1 / RFU, AEBP2 / Fold change vs veh, AEBP2 / RFU, SNHG1 /// SNORD22 /// SNORD25 /// SNORD26 /// SNORD27 /// SNORD28 /// SNORD29 /// SNORD31 / Fold change vs veh, SNHG1 /// SNORD22 /// SNORD25 /// SNORD26 /// SNORD27 /// SNORD28 /// SNORD29 /// SNORD31 / Fold change (Aza/veh), C12orf56 (ProbeSet 11735607_a_at) / Fold change (ACY-1035/veh), C12orf56 (ProbeSet 11735607_a_at) / Fold change (Aza/veh), FGFR1OP (ProbeSet 11751329_s_at) / Fold change (ACY-1035/veh), FGFR1OP (ProbeSet 11751329_s_at) / Fold change (Aza/veh), VPS36 (ProbeSet 11739960_a_at) / Fold change (ACY-1035/veh), VPS36 (ProbeSet 11739960_a_at) / RFU SYPL1 (11715823_x_at) / Fold change /veh SYPL1 (11715823_x_at) / RFU IGFBP7 (11715501_s_at) / Fold change /veh IGFBP7 (11715501_s_at) / RFU REEP3 (11722064_at) / Fold change /veh REEP3 (11722064_at) / RFU IGLL1 (11728026_x_at) / Fold change /veh IGLL1 (11728026_x_at): dose or concentration left out as unconfirmed
Conditions: MV-4-11 cells, 48 hours

## Nc1ccc(-c2cccs2)cc1NC(=O)c1ccc2c(c1)cc(C1CC1)n2CCN1CCOCC1 [ACY-1035]
  Fold change /veh PRF1 (11729649_at): 1.05
